Data: PMC8537988, “Re-Use of Caco-2 Monolayers in Permeability Assays—Validation Regarding Cell Monolayer Integrity” (Pharmaceutics, 2021)

System: Caco-2 monolayers
Test: Apical to basolateral permeability of LY through Caco-2 monolayers (Transwell, 12-well)
Format: in vitro ADME, human
Conditions: for LY Papp, µ best fit of Normal distribution to Papp / LY Papp, µ directly from Papp: single sampling at 60 min
Protocol: Caco-2 cells culture and monolayers preparation was as described in the reference protocol. Cells were maintained in T75 cm^2 flasks in culture medium (DMEM supplemented with 1% (v/v) NEAA, 10% (v/v) heat-inactivated FBS), in a humidified atmosphere of 5% CO2 at 37 °C. As recommended in the reference protocol, the permeability assays were performed using cells in passages 95–105. The cells were thawed on passage 89 and sub-cultured twice a week at or shortly before 90% confluency by a 1:8 split. To avoid seeding aggregated cells and the formation of multilayers in Transwell™ inserts, the cell clusters were disaggregated into single cells by passing them 3 times through a syringe needle of 23 gauges (BD Falcon) before cell counting. Caco-2 cells were seeded at 2.6 × 10^5 cells/cm^2 on 12-well polycarbonate filter inserts. The culture medium (with 1% (v/v) Pen/Strep) was replaced by fresh medium 6 h following seeding and then every 2–3 days thereafter until transport experiments.
The reference protocol was followed in the permeability assays, with slight modifications as required by the new experimental approach. Manipulation of the cell monolayers was conducted under sterile conditions (in the laminar flow hood or incubator). At the day of the experiments, the culture medium was removed and HBSS (further supplemented with 25 mM HEPES, 0.35 g/L sodium bicarbonate, pH 7.4) pre-warmed to 37 °C was added to the donor (0.5 mL) and receiver (1.5 mL) sides to wash the cell monolayers. The plate containing the inserts was placed (lid-covered) in an incubator without CO2 at 37 °C with an orbital shaker (IKA-Schüttler MTS4, JMGS, Lisboa, Portugal) at 50 rpm for 8 min. The washing step was repeated with new HBSS. The TEER was measured in HBSS at 37 °C using a Millicell® ERS-2 voltmeter equipped with a chopstick electrode pair (Merck, Lisboa, Portugal). A filter insert without cells was included in each set of experiments for correction of the TEER value for the background resistance. The resistance values (Ω cm^2) of the cell monolayers were obtained by subtracting the TEER value from blank inserts and multiplying by the surface area of the insert. All cell monolayers presented TEER values above 200 Ω cm^2. At least one insert of the set was fixed and stained for confocal microscopy analysis (see next section). The remaining ones were used to perform the apical to basolateral permeability assays with the paracellular marker LY. For this, the donor HBSS washing solution was decanted, and the inserts were placed into empty wells of a fresh 12-well plate. The permeability assay was initiated with the addition of 450 µL of the LY solution (20 µM in HBSS at 37 °C) simultaneously to the donor compartments of 3 to 4 insert, from which a 50 µL aliquot was immediately collected and stored for the calculation of the solute concentration in the donor compartment at t = 0. The inserts containing the LY solution were subsequently positioned in a pre-prepared 12-well plate containing HBSS (1.2 mL per well), and the lid-covered plate was placed on the incubator (without CO2, 50 rpm and 37 °C). At the defined sampling times, the plate was positioned into the laminar flow hood and the inserts were transferred into new wells containing fresh HBSS. The high fluorescence quantum yield of LY allows its detection by […], even for the very small amount expected to permeate during short permeation intervals. In this work we used 10, 20, 30, and 60 min or 60 min only as sampling times. At the end of the assay, inserts were transferred to empty wells and 50 µL was taken from the donor compartment for the calculation of the solute mass balance. The remaining solution was decanted, the inserts were placed on new wells containing 1.5 mL of pre-warm HBSS, and 0.5 mL of pre-warmed HBSS was added to each insert for TEER measurements. Some selected monolayers were prepared for microscopy; the remaining were incubated with culture media for re-use, as described below. […]

[1] = day 22, both sampling intervals (10 or 60 min)

LY Papp, µ best fit of Normal distribution to Papp (all days, all (88)): 1.9 10^-7 cm/s
LY Papp, µ directly from Papp (all days, all (88)): 2.1 10^-7 cm/s
LY Papp, µ best fit of Normal distribution to Papp (all days, re-use (41)): 1.6 10^-7 cm/s
LY Papp, µ directly from Papp (all days, re-use (41)): 1.8 10^-7 cm/s
LY QA, µ from Log(QA) (all days, single use & re-use, 1st 10 min (65)): 0.18%
LY QA, µ from Log(QA) (all days, single use & re-use, 1st 60 min (88)): 0.20%
LY QA, µ from Log(QA) (all days, single use & re-use, 2nd 10 min (66)): 0.21%
LY QA, µ from Log(QA) (all days, single use & re-use, 3rd 10 min (62)): 0.25%
LY QA, µ from Log(QA) (all days, single use & re-use, 4th 30 min (62)): 0.35%
LY QA, µ from Log(QA) (all days, single use & re-use, all 1st samplings (153)): 0.19%
LY QA, µ from Log(QA) (all days, single use & re-use, all samplings (346)): 0.23%
LY Papp, µ best fit of Normal distribution to Papp (all days, single use (47)): 2.1 10^-7 cm/s
LY Papp, µ directly from Papp (all days, single use (47)): 2.4 10^-7 cm/s
LY Papp, µ best fit of Normal distribution to Papp (day 22, all (35)): 2.0 10^-7 cm/s
LY Papp, µ directly from Papp (day 22, all (35)): 2.3 10^-7 cm/s
QA (%), µ, LY transported during first sampling interval (day 22, batch 1, passage 95, single use, one-time sampling (60 min)): 0.18%
QA (%), µ, LY transported during first sampling interval (day 22, batch 1, passage 98, single use, multi-time sampling (10 min)): 0.19%
QA (%), µ, LY transported during first sampling interval (day 22, batch 1, passage 100, single use, multi-time sampling (10 min)): 0.36%
QA (%), µ, LY transported during first sampling interval (day 22, batch 1, passage 104, single use, multi-time sampling (10 min)): 0.16%
QA (%), µ, LY transported during first sampling interval (day 22, batch 1, passage 105, single use, multi-time sampling (10 min)): 0.22%
QA (%), µ, LY transported during first sampling interval (day 22, batch 2, passage 95, single use, one-time sampling (60 min)): 0.27%
QA (%), µ, LY transported during first sampling interval (day 22, batch 2, passage 98, single use, one-time sampling (60 min)): 0.30%
QA (%), µ, LY transported during first sampling interval (day 22, batch 3, passage 95, single use, one-time sampling (60 min)): 0.19%
LogQA, centre of Normal distribution [1]: around −0.6
QA, amount of LY that reaches the acceptor compartment [1]: around 0.2%
LY QA, µ from Log(QA) (day 22, single use, 1st 10 min (27)): 0.25%
LY QA, µ from Log(QA) (day 22, single use, 1st 60 min (35)): 0.21%
LY QA, µ from Log(QA) (day 22, single use, 2nd 10 min (28)): 0.29%
LY QA, µ from Log(QA) (day 22, single use, 3rd 10 min (26)): 0.37%
LY QA, µ from Log(QA) (day 22, single use, 4th 30 min (28)): 0.48%
LY QA, µ from Log(QA) (day 22, single use, all 1st samplings (62)): 0.23%
LY QA, µ from Log(QA) (day 22, single use, all samplings (144)): 0.30%
LY Papp, µ best fit of Normal distribution to Papp (day 25, all (29)): 1.7 10^-7 cm/s
LY Papp, µ directly from Papp (day 25, all (29)): 1.9 10^-7 cm/s
QA (%), µ, LY transported during first sampling interval (day 25, batch 1, passage 95, re-use, one-time sampling (60 min)): 0.21%
QA (%), µ, LY transported during first sampling interval (day 25, batch 1, passage 95, single use, one-time sampling (60 min)): 0.13%
QA (%), µ, LY transported during first sampling interval (day 25, batch 1, passage 98, single use, multi-time sampling (10 min)): 0.10%
QA (%), µ, LY transported during first sampling interval (day 25, batch 1, passage 100, re-use, multi-time sampling (10 min)): 0.25%
QA (%), µ, LY transported during first sampling interval (day 25, batch 1, passage 104, single use, multi-time sampling (10 min)): 0.14%
QA (%), µ, LY transported during first sampling interval (day 25, batch 1, passage 105, re-use, multi-time sampling (10 min)): 0.20%
QA (%), µ, LY transported during first sampling interval (day 25, batch 2, passage 95, re-use, one-time sampling (60 min)): 0.16%
QA (%), µ, LY transported during first sampling interval (day 25, batch 2, passage 98, single use, one-time sampling (60 min)): 0.25%
QA (%), µ, LY transported during first sampling interval (day 25, batch 3, passage 95, re-use, one-time sampling (60 min)): 0.19%
LY Papp, µ best fit of Normal distribution to Papp (day 25, re-use (23)): 1.7 10^-7 cm/s
LY Papp, µ directly from Papp (day 25, re-use (23)): 1.9 10^-7 cm/s
LY QA, µ from Log(QA) (day 25, re-use, 1st 10 min (16)): 0.22%
LY QA, µ from Log(QA) (day 25, re-use, 1st 60 min (23)): 0.18%
LY QA, µ from Log(QA) (day 25, re-use, 2nd 10 min (16)): 0.28%
LY QA, µ from Log(QA) (day 25, re-use, 3rd 10 min (16)): 0.27%
LY QA, µ from Log(QA) (day 25, re-use, 4th 30 min (16)): 0.38%
LY QA, µ from Log(QA) (day 25, re-use, all 1st samplings (39)): 0.20%
LY QA, µ from Log(QA) (day 25, single use & re-use, 1st 10 min (22)): 0.19%
LY QA, µ from Log(QA) (day 25, single use & re-use, 1st 60 min (29)): 0.18%
LY QA, µ from Log(QA) (day 25, single use & re-use, 2nd 10 min (22)): 0.25%
LY QA, µ from Log(QA) (day 25, single use & re-use, 3rd 10 min (22)): 0.25%
LY QA, µ from Log(QA) (day 25, single use & re-use, 4th 30 min (22)): 0.36%
LY QA, µ from Log(QA) (day 25, single use & re-use, all 1st samplings (51)): 0.18%
LY QA, µ from Log(QA) (day 25, single use & re-use, all samplings (117)): 0.23%
LY Papp, µ directly from Papp (day 25, single use (6)): 2.1 10^-7 cm/s
LY QA, µ from Log(QA) (day 25, single use, 1st 10 min (6)): 0.12%
LY QA, µ from Log(QA) (day 25, single use, 1st 60 min (6)): 0.18%
LY QA, µ from Log(QA) (day 25, single use, 2nd 10 min (6)): 0.19%
LY QA, µ from Log(QA) (day 25, single use, 3rd 10 min (6)): 0.20%
LY QA, µ from Log(QA) (day 25, single use, 4th 30 min (6)): 0.31%
LY QA, µ from Log(QA) (day 25, single use, all 1st samplings (12)): 0.15%
LY Papp, µ best fit of Normal distribution to Papp (day 28, all (24)): 1.8 10^-7 cm/s
LY Papp, µ directly from Papp (day 28, all (24)): 2.2 10^-7 cm/s
QA (%), µ, LY transported during first sampling interval (day 28, batch 1, passage 95, re-use, one-time sampling (60 min)): 0.33%
QA (%), µ, LY transported during first sampling interval (day 28, batch 1, passage 95, single use, one-time sampling (60 min)): 0.39%
QA (%), µ, LY transported during first sampling interval (day 28, batch 1, passage 98, single use, multi-time sampling (10 min)): 0.09%
QA (%), µ, LY transported during first sampling interval (day 28, batch 1, passage 100, re-use, multi-time sampling (10 min)): 0.09%
QA (%), µ, LY transported during first sampling interval (day 28, batch 1, passage 104, single use, multi-time sampling (10 min)): 0.23%
QA (%), µ, LY transported during first sampling interval (day 28, batch 1, passage 105, re-use, multi-time sampling (10 min)): 0.06%
QA (%), µ, LY transported during first sampling interval (day 28, batch 2, passage 95, re-use, one-time sampling (60 min)): 0.11%
QA (%), µ, LY transported during first sampling interval (day 28, batch 2, passage 98, single use, one-time sampling (60 min)): 0.26%
QA (%), µ, LY transported during first sampling interval (day 28, batch 3, passage 95, re-use, one-time sampling (60 min)): 0.17%
LY Papp, µ best fit of Normal distribution to Papp (day 28, re-use (18)): 1.4 10^-7 cm/s
LY Papp, µ directly from Papp (day 28, re-use (18)): 1.8 10^-7 cm/s
LY QA, µ from Log(QA) (day 28, re-use, 1st 10 min (10)): 0.07%
LY QA, µ from Log(QA) (day 28, re-use, 1st 60 min (18)): 0.16%
LY QA, µ from Log(QA) (day 28, re-use, 2nd 10 min (10)): 0.08%
LY QA, µ from Log(QA) (day 28, re-use, 3rd 10 min (8)): 0.11%
LY QA, µ from Log(QA) (day 28, re-use, 4th 30 min (10)): 0.19%
LY QA, µ from Log(QA) (day 28, re-use, all 1st samplings (28)): 0.12%
LY QA, µ from Log(QA) (day 28, single use & re-use, 1st 10 min (16)): 0.09%
LY QA, µ from Log(QA) (day 28, single use & re-use, 1st 60 min (24)): 0.19%
LY QA, µ from Log(QA) (day 28, single use & re-use, 2nd 10 min (16)): 0.10%
LY QA, µ from Log(QA) (day 28, single use & re-use, 3rd 10 min (14)): 0.13%
LY QA, µ from Log(QA) (day 28, single use & re-use, 4th 30 min (16)): 0.20%
LY QA, µ from Log(QA) (day 28, single use & re-use, all 1st samplings (40)): 0.14%
LY QA, µ from Log(QA) (day 28, single use & re-use, all samplings (86)): 0.14%
LY Papp, µ directly from Papp (day 28, single use (6)): 3.3 10^-7 cm/s
LY QA, µ from Log(QA) (day 28, single use, 1st 10 min (6)): 0.15%
LY QA, µ from Log(QA) (day 28, single use, 1st 60 min (6)): 0.32%
LY QA, µ from Log(QA) (day 28, single use, 2nd 10 min (6)): 0.14%
LY QA, µ from Log(QA) (day 28, single use, 3rd 10 min (6)): 0.15%
LY QA, µ from Log(QA) (day 28, single use, 4th 30 min (6)): 0.24%
LY QA, µ from Log(QA) (day 28, single use, all 1st samplings (12)): 0.22%
Substance: Lucifer yellow CH di-potassium salt [LY]
